# Data published in patent US12144874B2, “Synthesis and composition of photodynamic therapeutic agents for the targeted treatment of cancer” (On Target Laboratories, LLC, priority 2015, dated 2024).
# “Also recorded” adds a separate entry of the source. Read-outs that look alike come from different tables or passages of the source.
# Assays:
# [1] = tested on: KB tumors; assay: Time dependent whole body fluorescence imaging of KB tumor bearing nude mice (IVIS imager); assay type: in vivo
# Text: FIG. 3 depicts an overlay of half body (top raw) and whole body (bottom raw) fluorescence image over white light images after adjusting the threshold. KB tumor bearing mice injected with 10 nmol of BPheid-a (1) and image with IVIS imager (ex=745 nm, em=ICG, exposure time=1 s) at different time intervals.
# FIG. 13 depicts an overlay of whole body fluorescence image over white light images after adjusting the threshold. KB tumor bearing mice injected with 10 nmol of 65a and image with IVIS imager (ex=745 nm, em=ICG, exposure time=1 s) at different time intervals.
# In the following examples, the in vivo efficacy of the compounds is determined using KB tumor cell xenograft in nude mice. In these studies, KB cells were implanted subcutaneously and growth of the tumors was monitored. For time dependent whole body imaging, once tumors become 250-350 mm^3, the compounds were injected via tail vein and accumulation of the PS in the tumor was monitored (over 48 hours) using fluorescence imaging using IVIS imager. Moreover, once tumors grow to […], the compounds were injected via tail vein. Three hours (3 h) after injecting with the compound, tumor was treated with laser beam (75 mW/cm^2, 137 J/cm^2, exposure diameter=7.5-8 mm) for […]. In vivo efficacy of BPheid-a was evaluated by monitoring reduction of tumor volume.
# [2] = tested on: subcutaneous KB tumor; assay: In vivo PDT efficacy on growth of subcutaneous KB tumor xenograft in nude mice
# Procedure: The growth of the tumor was monitored (images were taken) and tumor volume was measured using caliper.
# In the following examples, the in vivo efficacy of the compounds is determined using KB tumor cell xenograft in nude mice. In these studies, KB cells were implanted subcutaneously and growth of the tumors was monitored. […] Moreover, once tumors grow to […], the compounds were injected via tail vein. […] In vivo efficacy of BPheid-a was evaluated by monitoring reduction of tumor volume.
# KB cells that overexpressed folate receptor were implanted subcutaneously into female nude mice and allowed to grow to ˜50 mm^3 prior to initiation of treatment with 50 nmol of BPheid-a (1). […] In vivo efficacy of BPheid-a was evaluated by monitoring reduction of tumor volume.
# [3] = Activation wavelength of non-targeted PDT agents; assay type: physicochemical; conditions: Table 1
# [4] = tested on: KB cells
# [5] = tested on: KB cells; assay: cells; conditions: Homo sapiens
# [6] = tested on: subcutaneous KB tumor; assay: In vivo PDT efficacy on growth of subcutaneous KB tumor xenograft in nude mice; conditions: 25 nmol dose, laser 75 mW/cm^2, 137 J/cm^2, 38 min, 3 h after injection
# [7] = tested on: folate receptor positive cancer; conditions: cited from earlier work
# [8] = rats; cited from earlier work
# [9] = dogs; cited from earlier work
# [10] = 10 nmol injected, KB tumor bearing nude mice
# [11] = 50 nmol dose, laser 75 mW/cm^2, 137 J/cm^2, 38 min, 3 h after injection
# [12] = Table 1, non-targeted PDT agents, free drugs in DMSO, 2 h incubation, laser 6 mW/cm^2, 12 J/cm^2, 32 min, then 24 h
compound,measurement,setting,value
"CC[C@H]1c2cc3[nH]c4c(c3C)C(=O)[C@H](C(=O)OC)c4c3nc(cc4[nH]c(cc(n2)[C@@H]1C)c(C(C)=O)c4C)[C@@H](C)[C@@H]3CCC(=O)O [Compound 1, Bacteriopheophorbide-a, reference compound]",Fluorescence in the tumor (level or comparison with other conjugates),[1]; [10],very low
same,Tumor specificity / uptake in other tissues (whole body images),[1]; [10],nonspecific uptake of BPheid-a in the skin
same,Time to localize / accumulate in the tumor after administration,"[1]; 10 nmol injected, KB tumor bearing nude mice, fluorescence imaging",~24 h
same,"Effect on growth of subcutaneous KB tumor, in words",[2]; [11],some effect
same,KB tumor doubling time after treatment,"[2]; 50 nmol, laser 75 mW/cm^2, 137 J/cm^2, 38 min, 3 h after injection",< 1 week
same,Tumor volume reached by the end of the two week treatment period,"[2]; 50 nmol, laser 38 min 3 h after injection",> 600 mm^3
same,Activation Wavelength,[3],750 nm
same,EC50,[4]; [12],745 nM
same,EC50,"[4]; Table 2, mitochondrial-targeted modified PDT agents, free drugs in DMSO, 2 h incubation, laser 32 min, then 24 h",745 nM
same,IC50,"[4]; Table 3, nucleus-targeted modified PDT agents, free drugs in DMSO, 2 h incubation, laser 32 min, then 24 h",745 nM
same,EC50,"[4]; Table 7, folate-targeted releasable BPheid-a conjugates, different soluble linkers",745 nM
same,EC50,"[4]; Table 9, folate conjugates releasing cationic BPheid-a analogues",745 nM
same,EC50,"[4]; Table 11, folate conjugates releasing anionic BPheid-a analogues",745 nM
"CC[C@H]1c2cc3[n-]c4c(c3C)C(=O)[C@H](C(=O)OC)c4c3nc(cc4[n-]c(cc(n2)[C@@H]1C)c(C(C)=O)c4C)[C@@H](C)[C@@H]3CCC(=O)O.[Pd+2] [Compound 2, Tookad, reference compound]",Activation Wavelength,[3],760 nm
same,EC50,[4]; [12],10400 nM
CC[C@H]1c2cc3[nH]c(c(CC(=O)OC)c4nc(cc5[nH]c(cc(n2)[C@@H]1C)c(C(C)=O)c5C)[C@@H](C)[C@@H]4CCC(=O)NCCC[C@H](NC(=O)CC[P+](c1ccccc1)(c1ccccc1)c1ccccc1)C(=O)OC(C)(C)C)c(C(=O)N[N+](C)(C)C)c3C [Compound 15],EC50,[5],47.6 nM
CC[C@H]1c2cc3[nH]c4c(c3C)C(=O)C(C(=O)OC)c4c3nc(cc4[nH]c(cc(n2)[C@@H]1C)c(C(C)=O)c4C)[C@@H](C)[C@@H]3CCC(=O)NNC(=O)OCCSSC[C@H](NC(=O)[C@H](CC(=O)NCCS(=O)(=O)O)NC(=O)CC[C@H](NC(=O)c1ccc(NCc2cnc3nc(N)[nH]c(=O)c3n2)cc1)C(=O)O)C(=O)O (stereo partly shown) [Compound 65a],"Effect on growth of subcutaneous KB tumor, in words",[2]; [11],completely cured with no recurrence during the monitored time (13 weeks)
same,"Effect on growth of subcutaneous KB tumor, in words","[2]; 50 and 25 nmol doses, laser 38 min 3 h after injection",tumor regression at both doses (50 and 25 nmol)
same,"Effect on growth of subcutaneous KB tumor, in words",[6],completely cured with no recurrence during the monitored time (4 weeks)
CC[C@H]1c2cc3[nH]c4c(c3C)C(=O)C(C(=O)OC)c4c3nc(cc4[nH]c(cc(n2)[C@@H]1C)c(C(C)=O)c4C)[C@@H](C)[C@@H]3CCC(=O)NCCCC(C(=O)NCCSSC[C@H](NC(=O)[C@H](CC(=O)NCCS(=O)(=O)O)NC(=O)CC[C@H](NC(=O)c1ccc(NCc2cnc3nc(N)[nH]c(=O)c3n2)cc1)C(=O)O)C(=O)O)[N+](C)(C)C (stereo partly shown) [Compound 100],"Effect on growth of subcutaneous KB tumor, in words",[2]; [11],completely cure the tumor and showed tumor regression for 2 weeks; also recorded: completely cured with no recurrence during the monitored time (2 weeks)
same,EC50,[4]; 2 h,12.8 nM
CC[C@H]1c2cc3[nH]c4c(c3C)C(=O)C(C(=O)OC)c4c3nc(cc4[nH]c(cc(n2)[C@@H]1C)c(C(C)=O)c4C)[C@@H](C)[C@@H]3CCC(=O)NC(Cc1ccc(N(CCCl)CCCl)cc1)C(=O)NNC(=O)OCCSSC[C@H](NC(=O)[C@H](CC(=O)NCCS(=O)(=O)O)NC(=O)CC[C@H](NC(=O)c1ccc(NCc2cnc3nc(N)[nH]c(=O)c3n2)cc1)C(=O)O)C(=O)O (stereo partly shown) [Compound 112a],Fluorescence in the tumor (level or comparison with other conjugates),[1]; [10],more highly fluorescent
same,Tumor specificity / uptake in other tissues (whole body images),[1]; [10],highly specific for FR-positive tumors
same,Localization in whole body images,"[1]; 10 nmol, image 2 h after administering",localized mainly in the tumor
same,EC50,"[4]; Table 12, folate-targeted releasable BPheid-a, miscellaneous",0.5 nM
OTL38,Malignant lesions removed with the aid of OTL38 versus without it,"[7]; clinical trial, image-guided surgery",approximately 5 ×
same,Tumor cells removed by OTL38-guided resection,[7]; image-guided resection,approximately 95%
same,Toxicity,[8],no toxicity
same,Toxicity,[9],no toxicity
Photofrin [Compound 7],Activation Wavelength,[3],630 nm
"Visudyne [Compound 5, reference compound]",Activation Wavelength,[3],689 nm
same,EC50,[4]; [12],838 nM
"tookad soluble [Compound 4, reference compound]",Activation Wavelength,[3],750 nm
same,EC50,[4]; [12],7760 nM
